Values after ≈ are worked out from the molar mass of the structure shown. Where two headings read alike, the source gives them in different places.
How the values were obtained:
Assay type in all cases: cell-based
S. aureus ATCC 29213 = test: MIC (broth microdilution or agar dilution, CLSI); details: Staphylococcus aureus, read-out: MIC
Experimental: (§1) Minimum inhibitory concentrations (MICs) were determined by broth microdilution method or agar dilution method following the Clinical and Laboratory Standards Institute guidelines. Standard bacterial strains were obtained from American Type Culture Collection (ATCC). Other bacterial strains were obtained from hospitals and commercial sources, so noted in Table 11. […] Specialized procedures were employed for streptococcal and anaerobic strains. All other bacterial strains were sub-cultured on blood agar plates (tryptic soy agar with 5% sheep blood, Hardy Diagnostics) and incubated overnight at 35° C. […] Suspensions were further diluted to obtain a final inoculum of 5×10^5 CFU/mL for broth microdilution experiments.

A. baumannii ATCC 19606 = test: MIC (broth microdilution or agar dilution, CLSI); details: Acinetobacter baumannii, ATCC19606; A. baumannii ATCC 19606; read-out: MIC
Experimental: as §1

S. pyogenes ATCC 19615 = test: MIC (broth microdilution or agar dilution, CLSI); details: Streptococcus pyogenes, read-out: MIC
Experimental: as §1

S. pneumoniae ATCC 49619 = test: MIC (broth microdilution or agar dilution, CLSI); details: Streptococcus pneumoniae, read-out: MIC
Experimental: as §1

E. coli LptD = test: MIC (broth microdilution or agar dilution, CLSI); details: Escherichia coli, read-out: MIC
Experimental: as §1

E. coli ATCC 25922 = test: MIC (broth microdilution or agar dilution, CLSI); details: Escherichia coli, ATCC25922, read-out: MIC
Experimental: as §1

E. faecalis ATCC 29212 = test: MIC (broth microdilution or agar dilution, CLSI); details: Enterococcus faecalis, read-out: MIC
Experimental: as §1

K. oxytoca Clinical = test: MIC (broth microdilution or agar dilution, CLSI); details: Klebsiella oxytoca, read-out: MIC
Experimental: as §1

E. coli ΔTolC = test: microbe, parasite or virus in culture; details: Escherichia coli
Experimental: as §1

E. faecium Clinical VRE = test: MIC (broth microdilution or agar dilution, CLSI); details: Enterococcus faecium; E. faecium Clinical VRE; read-out: MIC
Experimental: (§2) Minimum inhibitory concentrations (MICs) were determined by broth microdilution method or agar dilution method following the Clinical and Laboratory Standards Institute guidelines. Standard bacterial strains were obtained from American Type Culture Collection (ATCC). Other bacterial strains were obtained from hospitals and commercial sources, so noted in Table 11. Before the start of the MIC experiment, standard and test compound stock solutions were prepared in dimethyl sulfoxide (DMSO, Aldrich D2650) at a stock concentration of 5,120 μg/mL. The compound concentration range typically employed for each experiment was 128-0.06 μg/mL (2.5% final DMSO concentration). Clindamycin was used as a comparator in all experiments and each experiment was performed in triplicate. Specialized procedures were employed for streptococcal and anaerobic strains. All other bacterial strains were sub-cultured on blood agar plates (tryptic soy agar with 5% sheep blood, Hardy Diagnostics) and incubated overnight at 35° C. Organisms were suspended in cation-adjusted Mueller-Hinton broth (CaMHB, BD 212322) and optical density was adjusted to 0.5 McFarland standard. Suspensions were further diluted to obtain a final inoculum of 5×10^5 CFU/mL for broth microdilution experiments.

S. aureus cErmA = test: MIC (broth microdilution or agar dilution, CLSI); details: Staphylococcus aureus; S. aureus cErmA; read-out: MIC
Experimental: as §2

P. aeruginosa ATCC 27853 = test: MIC (broth microdilution or agar dilution, CLSI); details: Pseudomonas aeruginosa, ATCC27853; P. aeruginosa ATCC 27853; read-out: MIC
Experimental: as §2

[1] = tested on: E. faecalis MMX 847; cErmB; test: MIC (broth microdilution or agar dilution, CLSI); details: Enterococcus faecalis; E. faecalis HAV#036, MMX 847; mac-resistant, cErmB; read-out: MIC
Experimental: as §1

[2] = tested on: S. pneumoniae MMX 3031 cMefA; test: MIC (broth microdilution or agar dilution, CLSI); details: Streptococcus pneumoniae, MMX3031CMEFA, S. pneumoniae HAV#034; MMX 3031, cMefA; read-out: MIC
Experimental: as §1

S. aureus MMX 3035 cErmA = test: MIC (broth microdilution or agar dilution, CLSI); details: Staphylococcus aureus, MMX3035CERMA; S. aureus HAV#031, MMX 3035; cErmA; read-out: MIC
Experimental: as §1

[3] = tested on: S. aureus ATCC BAA-1707 (MRSA); test: MIC (broth microdilution or agar dilution, CLSI); details: Staphylococcus aureus; S. aureus HAV#016, ATCC BAA-1707; MRSA; read-out: MIC
Experimental: as §1

[4] = tested on: S. pyogenes MMX 946; cErmB; test: MIC (broth microdilution or agar dilution, CLSI); details: Streptococcus pyogenes; S. pyogenes HAV#035, MMX 946; cErmB, mac-resistant; read-out: MIC
Experimental: as §1

[5] = tested on: S. pneumoniae MMX 3028 cErmB; test: MIC (broth microdilution or agar dilution, CLSI); details: Streptococcus pneumoniae, MMX3028CERMB; S. pneumoniae HAV#033; MMX 3028, cErmB; read-out: MIC
Experimental: as §1

S. aureus hVISA = test: MIC (broth microdilution or agar dilution, CLSI); details: Staphylococcus aureus; S. aureus HAV#204, hVISA; read-out: MIC
Experimental: as §1

S. pneumoniae ATCC 6303 = test: MIC (broth microdilution or agar dilution, CLSI); details: Streptococcus pneumoniae, ATCC6303; S. pneumoniae HAV#351, ATCC 6303; read-out: MIC
Experimental: as §1

S. aureus BAA 977 iErmA = test: microbe, parasite or virus in culture; details: Staphylococcus aureus, BAA-977 / MRSA
Experimental: as §1

S. aureus MP-549 msrA = test: microbe, parasite or virus in culture; details: Staphylococcus aureus, MP549MSRA; S. aureus HAV#032, MP-549; MSR(A)
Experimental: as §1

[6] = tested on: broad panel of different clinical isolates; test: microbe, parasite or virus in culture
Experimental: as §1

[7] = ATCC29213, S. aureus ATCC 29213
[8] = ATCC19615, S. pyogenes ATCC 19615
[9] = ATCC49619, S. pneumoniae ATCC 49619
[10] = ATCC29212, E. faecalis ATCC 29212

C=C[C@@H]1CCO[C@@H]2[C@H](CN[C@@H]2C(=O)N[C@H]([C@H](C)Cl)[C@H]2OC(SC)[C@H](O)[C@H](O)C2O)C1 (stereo partly drawn) [FSA-10-10-013]
MIC (S. aureus ATCC 29213; [7]): 0.25 µg/mL (≈ 0.538 µM) | MIC (A. baumannii ATCC 19606): > 128 µg/mL | MIC (S. pyogenes ATCC 19615; [8]): 0.25 µg/mL (≈ 0.538 µM) | MIC (S. pneumoniae ATCC 49619; [9]): 0.25 µg/mL (≈ 0.538 µM) | MIC (E. coli LptD; E. coli LptD): 4 µg/mL (≈ 8.6 µM) | MIC (E. coli ATCC 25922; E. coli ATCC 25922): 64 µg/mL (≈ 138 µM) | MIC (E. faecalis ATCC 29212; [10]): 2 µg/mL (≈ 4.3 µM) | MIC (K. oxytoca Clinical; K. oxytoca Clinical): 128 µg/mL (≈ 275 µM) | MIC (E. coli ΔTolC; E. coli ΔTolC): 2 µg/mL (≈ 4.3 µM) | MIC (E. faecium Clinical VRE): 32 µg/mL (≈ 68.8 µM) | MIC (S. aureus cErmA): 64 µg/mL (≈ 138 µM) | MIC (P. aeruginosa ATCC 27853): > 128 µg/mL

CSC1O[C@H]([C@H](NC(=O)[C@H]2NC[C@@H]3C[C@H](C)CCO[C@H]32)[C@H](C)Cl)C(O)[C@@H](O)[C@H]1O (stereo partly drawn) [FSA-10-10-014]
MIC (S. aureus ATCC 29213; [7]): 1 µg/mL (≈ 2.21 µM) | MIC (A. baumannii ATCC 19606): > 128 µg/mL | MIC (S. pyogenes ATCC 19615; [8]): 1 µg/mL (≈ 2.21 µM) | MIC (S. pneumoniae ATCC 49619; [9]): 2 µg/mL (≈ 4.42 µM) | MIC (E. coli LptD; E. coli LptD): 8 µg/mL (≈ 17.7 µM) | MIC (E. coli ATCC 25922; E. coli ATCC 25922): 64 µg/mL (≈ 141 µM) | MIC (E. faecalis ATCC 29212; [10]): 16 µg/mL (≈ 35.3 µM) | MIC (K. oxytoca Clinical; K. oxytoca Clinical): 128 µg/mL (≈ 283 µM) | MIC (E. coli ΔTolC; E. coli ΔTolC): 8 µg/mL (≈ 17.7 µM) | MIC (E. faecium Clinical VRE): 64 µg/mL (≈ 141 µM) | MIC (S. aureus cErmA): 64 µg/mL (≈ 141 µM) | MIC (P. aeruginosa ATCC 27853): > 128 µg/mL

COCCC[C@@H]1CCO[C@@H]2[C@H](CN[C@@H]2C(=O)N[C@H]([C@H](C)Cl)[C@H]2OC(SC)[C@H](O)[C@H](O)C2O)C1 (stereo partly drawn) [FSA-10-10-022]
MIC (S. aureus ATCC 29213; [7]): 0.125 µg/mL (≈ 0.245 µM) | MIC (A. baumannii ATCC 19606): > 128 µg/mL | MIC (S. pyogenes ATCC 19615; [8]): 0.25 µg/mL (≈ 0.489 µM) | MIC (S. pneumoniae ATCC 49619; [9]): 0.25 µg/mL (≈ 0.489 µM) | MIC (E. coli LptD; E. coli LptD): 4 µg/mL (≈ 7.83 µM) | MIC (E. coli ATCC 25922; E. coli ATCC 25922): 32 µg/mL (≈ 62.6 µM) | MIC (E. faecalis ATCC 29212; [10]): 2 µg/mL (≈ 3.91 µM) | MIC (K. oxytoca Clinical; K. oxytoca Clinical): 32 µg/mL (≈ 62.6 µM) | MIC (E. coli ΔTolC; E. coli ΔTolC): 0.5 µg/mL (≈ 0.978 µM) | MIC (E. faecium Clinical VRE): 8 µg/mL (≈ 15.7 µM) | MIC (S. aureus cErmA): 16 µg/mL (≈ 31.3 µM) | MIC (P. aeruginosa ATCC 27853): > 128 µg/mL

Cc1onc(-c2ccccc2)c1C(=O)N[C@@H]1C(=O)N2[C@@H]1SC(C)(C)[C@@H]2C(=O)O [Oxacillin]
MIC (S. aureus ATCC 29213; ATCC29213, S. aureus HAV#001, ATCC 29213, MP-549): 0.5 µg/mL (≈ 1.25 µM) | MIC [1]: 64 µg/mL (≈ 159 µM) | MIC (S. pyogenes ATCC 19615; ATCC19615, S. pyogenes HAV#004, ATCC 19615): 0.125 µg/mL (≈ 0.311 µM) | MIC [2]: 16 µg/mL (≈ 39.9 µM) | MIC (S. aureus MMX 3035 cErmA): > 64 µg/mL | MIC (S. pneumoniae ATCC 49619; ATCC49619, S. pneumoniae HAV#003, ATCC 49619): 2 µg/mL (≈ 4.98 µM) | MIC [3]: > 64 µg/mL | MIC [4]: 0.25 µg/mL (≈ 0.623 µM) | MIC (E. coli LptD; E. coli HAV#040, LptD): 4 µg/mL (≈ 9.96 µM) | MIC [5]: 2 µg/mL (≈ 4.98 µM) | MIC (E. coli ATCC 25922; E. coli HAV#006, ATCC 25922): > 64 µg/mL | MIC (E. faecalis ATCC 29212; ATCC29212, E. faecalis HAV#005, ATCC 29212): 32 µg/mL (≈ 79.7 µM) | MIC (S. aureus hVISA): 64 µg/mL (≈ 159 µM) | MIC (S. pneumoniae ATCC 6303): 0.5 µg/mL (≈ 1.25 µM) | MIC (K. oxytoca Clinical; K. oxytoca HAV#450, Clinical): > 64 µg/mL | MIC (E. coli ΔTolC; E. coli HAV#038, ΔTolC): 16 µg/mL (≈ 39.9 µM) | MIC (S. aureus BAA 977 iErmA): 0.5 µg/mL (≈ 1.25 µM) | MIC (S. aureus MP-549 msrA): 64 µg/mL (≈ 159 µM) | MIC ([6]; Enterococcus faecalis, VRE, E. faecalis HAV#251, Clinical VRE): > 64 µg/mL | MIC ([6]; Staphylococcus aureus, MRSA, S. aureus HAV#0107, MRSA Col(Colindale, England)): > 64 µg/mL | MIC ([6]; Staphylococcus aureus, VISA, S. aureus HAV#203, Clinical (VISA)): 64 µg/mL (≈ 159 µM)

— patent publication US20230203081A1, “LINCOSAMIDE ANTIBIOTICS AND USES THEREOF” (President and Fellows of Harvard College, priority 2020, published 2023)
